Measurements reported in patent US20250129135A1, “Multi-Agonist and Use Thereof” (priority 2021, published 2025).
Starred links: 1 amine or outer side, 2 acyl side, 3 side chain; linkers in the order of their positions; H or OH if unused. Non-standard residues stand in square brackets, D forms with d. Residues, ends and D or L forms follow the SMILES beside them. Groups on a side chain read outwards from the residue. *: point of attachment. C20 diacid = O=C(O)CCCCCCCCCCCCCCCCCCC(=O)*; αMePhe(2-F) = C[C@](N)(Cc1ccccc1F)C(=O)O; γGlu = O=C(O)[C@H](CCC(=O)[*:2])N[*:1]; αMeL = CC(C)C[C@](C)(N)C(=O)O; AEEA = NCCOCCOCC(=O)O; Ac3c = NC1(C(=O)O)CC1; Aib = CC(C)(N)C(=O)O

Assays:
C57 BL/6J DIO mice = experiment: In vivo pharmacodynamics in high-fat diet induced obesity (DIO) mice; design: species or system mouse; settings: Table 9-2; 3 nmol/kg; Day 15; Mean±SEM
From the text: High-fat diet induced obesity (DIO) mice have characteristics such as obesity, elevated blood sugar, insulin resistance, and lipid abnormalities, all of which are very significant metabolic syndromes similar to a human body. The effects of the compounds of the present application on body weight, food intake, blood sugar, and lipids in C57 BL/6J DIO mice were studied.
Obesity was induced in mice by feeding with a high-fat diet (60 kcal % of calories from fat). […] After grouping, one animal was raised in each cage for one week, during which each of the animals was injected subcutaneously (S.C.) with a solvent (1×PBS, 5 ml/kg) to pre-adapt the experimental operation process.
After the preparation of animals, vehicle control or compounds were administered to groups of animals by subcutaneous injection, in which the compounds were dissolved in 1×PBS, the dosage was 5 ml/kg, and the administration operation was started at 9:00 am and conducted once every three days (Q3D) for 15 days. Throughout the entire experimental study, animal weight and food intake were measured daily before administration, and compared with initial weight and food intake of the same animal before administration to calculate a percentage change in animal weight (%) and cumulative food intake, so as to evaluate the impact of compounds on changes in body weight and food intake.
At the end point of the experiment (Day 15), the body weight of the mice was measured, and then fasting blood glucose was measured by taking blood from the tail tip of broken tail without anesthesia. After the blood collection, the animals were anesthetized with CO2 and euthanized. Then, blood was taken from the heart and plasma was separated by centrifugation. The plasma was used to measure total cholesterol (TC), low-density lipoprotein cholesterol (LDL-C), triglycerides (TG), and blood insulin content. The liver was separated for homogenization, and then centrifuged to obtain the supernatant for determining triglyceride content in the liver.
All results were expressed in Mean±SEM, and the results were analyzed by one-way ANOVA using GraphPad Prism 5 software, followed by Dunnett's post hoc test compared to the Vehicle control group. The difference at the p<0.05 level was considered statistically significant.

Human GCG R = biological target: T1, Human GCG R (Homo sapiens, UniProt P47871); experiment: cAMP (HTRF) activity in HEK-293 cells stably overexpressing human GCG receptor; type: cell-based; settings: EC50 of human GCG / EC50 of compound
T1 construct: expressed in transfected cells; host or cells: HEK-293
T1 sequence (P47871 26-477): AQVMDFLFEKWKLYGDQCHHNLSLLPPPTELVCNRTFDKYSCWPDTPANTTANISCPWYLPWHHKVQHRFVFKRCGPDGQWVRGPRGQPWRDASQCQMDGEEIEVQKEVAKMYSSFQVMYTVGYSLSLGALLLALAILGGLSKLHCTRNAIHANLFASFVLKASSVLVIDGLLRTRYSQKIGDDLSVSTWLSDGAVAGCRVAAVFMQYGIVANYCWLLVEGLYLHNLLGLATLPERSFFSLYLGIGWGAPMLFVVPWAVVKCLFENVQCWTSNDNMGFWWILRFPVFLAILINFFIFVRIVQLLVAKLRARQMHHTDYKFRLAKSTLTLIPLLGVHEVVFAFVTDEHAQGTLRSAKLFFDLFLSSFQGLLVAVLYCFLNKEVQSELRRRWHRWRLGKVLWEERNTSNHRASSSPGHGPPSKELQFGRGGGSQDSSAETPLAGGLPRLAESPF
Method in brief: (§1)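 Cells resuspended in HBSS are incubated with compound for 60 min at room temperature, then with HTRF cAMP detection reagent for a further 60 min. Concentration-response fits give agonist EC50 values in nM.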

3T3-L1 adipocytes = system: 3T3-L1 adipocytes
Method in brief: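 Mouse 3T3-L1 preadipocytes were differentiated with IBMX, dexamethasone and insulin for 5 days, then insulin plus 10 uM rosiglitazone for 3 days, then 10% FBS medium for 2–3 days. Mature adipocytes received 10-point, 3-fold compound dilutions for 60 min at room temperature. cAMP was read by kit detection reagent after a further 60 min, with concentration-effect curves fitted.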

Human GIP R = biological target: T2, Human GIP R (Homo sapiens, UniProt P48546); experiment: cAMP (HTRF) activity in CHO cells stably overexpressing GIP receptor; type: cell-based; settings: EC50 of human GIP / EC50 of compound
T2 construct: expressed in transfected cells; host or cells: CHO
T2 sequence (P48546 22-466): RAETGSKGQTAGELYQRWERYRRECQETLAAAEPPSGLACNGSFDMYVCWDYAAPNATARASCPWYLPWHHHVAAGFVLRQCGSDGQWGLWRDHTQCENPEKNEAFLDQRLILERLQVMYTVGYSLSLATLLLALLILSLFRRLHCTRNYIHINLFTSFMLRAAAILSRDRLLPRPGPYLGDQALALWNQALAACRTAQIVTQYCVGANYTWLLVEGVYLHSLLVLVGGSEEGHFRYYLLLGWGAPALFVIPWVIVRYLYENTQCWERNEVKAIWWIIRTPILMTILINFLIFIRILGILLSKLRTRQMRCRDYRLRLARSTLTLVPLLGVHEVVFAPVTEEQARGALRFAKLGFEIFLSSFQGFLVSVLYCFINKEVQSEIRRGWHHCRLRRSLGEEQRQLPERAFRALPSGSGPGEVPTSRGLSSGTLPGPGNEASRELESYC
Method in brief: as §1

Human GLP-1R = Human GLP-1R (Homo sapiens, UniProt P43220); experiment: cAMP (HTRF) activity in HEK-293 cells stably overexpressing human GLP-1 receptor; type: cell-based; design: expressed in transfected cells; host or cells: HEK-293
Sequence of Human GLP-1R (P43220 24-463): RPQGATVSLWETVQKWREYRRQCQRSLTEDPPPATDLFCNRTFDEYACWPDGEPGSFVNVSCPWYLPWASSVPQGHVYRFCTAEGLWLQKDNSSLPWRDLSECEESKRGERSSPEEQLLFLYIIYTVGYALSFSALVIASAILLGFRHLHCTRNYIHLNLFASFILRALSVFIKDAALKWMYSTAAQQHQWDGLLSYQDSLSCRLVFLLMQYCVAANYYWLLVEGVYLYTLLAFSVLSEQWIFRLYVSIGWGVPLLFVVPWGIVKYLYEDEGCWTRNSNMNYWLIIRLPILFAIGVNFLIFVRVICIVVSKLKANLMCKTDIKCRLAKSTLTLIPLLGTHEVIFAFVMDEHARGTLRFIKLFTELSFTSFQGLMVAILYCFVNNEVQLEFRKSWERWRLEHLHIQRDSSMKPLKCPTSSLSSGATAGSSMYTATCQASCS
Method in brief: as §1

[1] = system: human primary liver cells; type: cell-based
Method in brief: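 Human primary hepatocytes, thawed at 37° C and resuspended in HBSS, exposed to compound for 60 min at room temperature. Detection reagent then added for 60 min before cAMP readout.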

RIN-m5F cells = type: cell-based, rat
Method in brief: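 cAMP production measured in RIN-m5F cells resuspended in HBSS; compounds incubated 60 min at room temperature, then detection reagent added for a further 60 min before read-out.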

SMILES: CC[C@H](C)[C@H](NC(=O)[C@H](Cc1ccccc1)NC(=O)[C@H](C)NC(=O)C(C)(C)NC(=O)[C@H](CCC(N)=O)NC(=O)[C@H](C)NC(=O)[C@H](CCCCNC(=O)COCCOCCNC(=O)COCCOCCNC(=O)CC[C@H](NC(=O)CCCCCCCCCCCCCCCCCCC(=O)O)C(=O)O)NC(=O)[C@H](CCCCN)NC(=O)[C@H](CC(=O)O)NC(=O)[C@H](CC(C)C)NC(=O)[C@](C)(CC(C)C)NC(=O)[C@@H](NC(=O)[C@H](CO)NC(=O)[C@H](Cc1ccc(O)cc1)NC(=O)[C@H](CC(=O)O)NC(=O)[C@H](CO)NC(=O)[C@@H](NC(=O)[C@](C)(Cc1ccccc1F)NC(=O)[C@@H](NC(=O)CNC(=O)[C@H](CCC(N)=O)NC(=O)C(C)(C)NC(=O)[C@@H](N)Cc1ccc(O)cc1)[C@@H](C)O)[C@@H](C)O)[C@@H](C)CC)C(=O)N[C@@H](CCC(=O)O)C(=O)N[C@@H](Cc1ccccc1)C(=O)N[C@@H](CC(C)C)C(=O)N[C@@H](CC(C)C)C(=O)N[C@@H](CCC(=O)O)C(=O)N[C@@H](CO)C(=O)N[C@@H](Cc1c[nH]cn1)C(=O)N1CCC[C@H]1C(=O)N[C@@H](CO)C(=O)N[C@@H](CO)C(=O)NC(C)(C)C(=O)N[C@@H](Cc1c[nH]cn1)C(=O)N1CCC[C@H]1C(=O)N1CCC[C@H]1C(=O)NC1(C(=O)N[C@@H](CO)C(N)=O)CC1 [Compound 40] (H-Y[Aib]QGT[αMePhe(2-F)]TSDYSI[αMeL]LDKK([AEEA-AEEA-γGlu-C20 diacid])AQ[Aib]AFIEFLLESHPSS[Aib]HPP[Ac3c]S-NH2)
- Liver TG (C57 BL/6J DIO mice): 42.1 ± 5.22 mg
- Human GCG R Rel. A (Relative Activity) (Human GCG R): 34.13%
- EC50 (3T3-L1 adipocytes): 2.56 nM
- Rel. A (Relative Activity) on 3T3-L1 adipocyte (3T3-L1 adipocytes; relative to GIP): 148.46%
- Human GIP R Rel. A (Relative Activity) (Human GIP R): 150.83%
- Human GLP-1R Rel. A (Relative Activity) (Human GLP-1R; EC50 of human GLP-1 (7-37) / EC50 of compound): 275.00%
- EC50 (Human GLP-1R; stable transfected cell cAMP activity, at least 3 independent tests): 0.016 nM
- EC50 [1]: 1.07 nM
- Rel. A (Relative Activity) on human primary liver cells ([1]; relative to GCG): 364.33%
- EC50 (RIN-m5F cells): 0.16 nM
- Rel. A (Relative Activity) on RIN-m5F (RIN-m5F cells; relative to GLP-1(7-37)): 645.00%
